{
  "source": "ChEMBL document CHEMBL2396582",
  "about": "“Large conductance Ca(2+)-activated K(+) channel (BKCa) activating properties of a series of novel N-arylbenzamides: Channel subunit dependent effects” (Bioorg Med Chem, 2013)",
  "assay_type_in_all_cases": "cell-based",
  "key": {"[1]": {"molecular_target": "Calcium-activated potassium channel subunit alpha-1 (Homo sapiens) (UniProt Q12791)", "sequence (Q12791 whole entry)": "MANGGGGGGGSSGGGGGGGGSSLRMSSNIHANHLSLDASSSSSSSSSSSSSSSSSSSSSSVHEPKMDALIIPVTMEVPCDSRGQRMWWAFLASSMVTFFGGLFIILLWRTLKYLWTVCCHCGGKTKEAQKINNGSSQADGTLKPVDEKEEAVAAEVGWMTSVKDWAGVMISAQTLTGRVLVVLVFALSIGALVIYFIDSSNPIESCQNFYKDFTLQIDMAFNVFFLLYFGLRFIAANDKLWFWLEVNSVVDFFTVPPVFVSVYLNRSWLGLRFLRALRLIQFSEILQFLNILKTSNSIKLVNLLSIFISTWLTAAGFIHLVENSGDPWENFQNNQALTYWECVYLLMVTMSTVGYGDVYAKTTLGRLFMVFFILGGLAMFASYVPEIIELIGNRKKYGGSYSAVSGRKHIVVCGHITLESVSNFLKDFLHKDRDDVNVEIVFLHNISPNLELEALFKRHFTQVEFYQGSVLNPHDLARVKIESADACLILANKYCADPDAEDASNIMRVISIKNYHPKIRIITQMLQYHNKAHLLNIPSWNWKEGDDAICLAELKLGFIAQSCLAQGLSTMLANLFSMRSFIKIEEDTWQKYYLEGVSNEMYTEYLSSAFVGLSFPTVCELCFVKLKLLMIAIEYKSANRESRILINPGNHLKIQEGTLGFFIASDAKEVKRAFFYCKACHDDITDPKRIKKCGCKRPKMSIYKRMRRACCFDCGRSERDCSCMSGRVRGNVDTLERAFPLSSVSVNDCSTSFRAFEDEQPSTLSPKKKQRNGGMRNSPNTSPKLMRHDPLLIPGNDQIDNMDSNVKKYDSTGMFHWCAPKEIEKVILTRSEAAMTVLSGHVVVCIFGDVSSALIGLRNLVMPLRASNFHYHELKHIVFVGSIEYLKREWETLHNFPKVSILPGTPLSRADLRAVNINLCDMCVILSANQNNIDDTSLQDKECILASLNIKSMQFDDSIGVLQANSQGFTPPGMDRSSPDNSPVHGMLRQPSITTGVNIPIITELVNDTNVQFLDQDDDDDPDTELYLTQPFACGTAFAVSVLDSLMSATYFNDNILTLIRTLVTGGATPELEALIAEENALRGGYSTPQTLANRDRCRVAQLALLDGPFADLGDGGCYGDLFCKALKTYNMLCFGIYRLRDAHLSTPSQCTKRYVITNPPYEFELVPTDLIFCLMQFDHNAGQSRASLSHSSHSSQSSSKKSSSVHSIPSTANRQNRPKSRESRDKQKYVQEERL", "experiment": "Activation of human BKCA alpha channel expressed in HEK293 cells assessed as increase in intracellular calcium level at 100 uM after 30 mins"}, "[2]": {"molecular_target": "T1, Calcium-activated potassium channel alpha/beta 1 (Homo sapiens) (UniProt Q12791+Q16558)", "experiment": "Activation of human BKCA alpha/beta1 channel expressed in HEK293 cells assessed as increase of rubidium efflux after 10 mins in presence paxilline"}, "[3]": {"molecular_target": "Calcium-activated potassium channel subunit alpha-1 (Homo sapiens) (UniProt Q12791)", "experiment": "Activation of human BKCA alpha channel expressed in HEK293 cells assessed as increase of rubidium efflux at 100 uM after 10 mins in presence of paxilline"}, "[4]": {"molecular_target": "T1, Calcium-activated potassium channel alpha/beta 1 (Homo sapiens)", "experiment": "Activation of human BKCA alpha/beta1 channel expressed in HEK293 cells assessed as increase of rubidium efflux after 10 mins in presence iberiotoxin"}, "[5]": {"molecular_target": "Calcium-activated potassium channel subunit alpha-1 (Homo sapiens) (UniProt Q12791)", "experiment": "Activation of human BKCA alpha channel expressed in HEK293 cells assessed as increase of rubidium efflux at 100 uM after 10 mins in presence of iberiotoxin"}, "[6]": {"molecular_target": "T1, Calcium-activated potassium channel alpha/beta 1 (Homo sapiens)", "experiment": "Activation of human BKCA alpha/beta1 channel expressed in HEK293 cells assessed as increase of rubidium efflux after 10 mins relative to control"}, "[7]": {"molecular_target": "Calcium-activated potassium channel subunit alpha-1 (Homo sapiens) (UniProt Q12791)", "experiment": "Activation of human BKCA alpha channel expressed in HEK293 cells assessed as increase of rubidium efflux after 10 mins relative to control"}, "[8]": {"molecular_target": "T1, Calcium-activated potassium channel alpha/beta 1 (Homo sapiens)", "experiment": "Activation of human BKCA alpha/beta1 channel expressed in HEK293 cells assessed as increase of rubidium efflux after 10 mins"}, "[9]": {"molecular_target": "Calcium-activated potassium channel subunit alpha-1 (Homo sapiens) (UniProt Q12791)", "experiment": "Activation of human BKCA alpha channel expressed in HEK293 cells assessed as increase of rubidium efflux after 10 mins"}, "[10]": {"molecular_target": "Calcium-activated potassium channel subunit alpha-1 (Homo sapiens) (UniProt Q12791)", "experiment": "Activation of human BKCA alpha channel expressed in HEK293 cells assessed as increase in intracellular calcium level at 50 uM after 30 mins"}, "[11]": {"molecular_target": "Calcium-activated potassium channel subunit alpha-1 (Homo sapiens) (UniProt Q12791)", "experiment": "Activation of human BKCA alpha channel expressed in HEK293 cells assessed as increase in intracellular calcium level at 10 uM after 30 mins"}, "[12]": {"molecular_target": "Calcium-activated potassium channel subunit alpha-1 (Homo sapiens) (UniProt Q12791)", "experiment": "Activation of human BKCA alpha channel expressed in HEK293 cells assessed as increase in intracellular calcium level at 0.1 uM after 30 mins"}},
  "note": "The source made the active and inactive calls. No cut-off for these calls is given here.",
  "data": [
    {"compound": "CCOc1ccccc1C(=O)Nc1cc(Cl)ccc1O", "values": [
      {"measurement": "Activity", "setting": "[1]", "value": 6.2, "unit": "%"},
      {"measurement": "Activity", "setting": "[2]", "value": "inactive"},
      {"measurement": "Activity", "setting": "[3]", "value": "inactive"},
      {"measurement": "Activity", "setting": "[4]", "value": "inactive"},
      {"measurement": "Activity", "setting": "[5]", "value": "inactive"},
      {"measurement": "Emax", "setting": "[6]", "value": 99.5, "unit": "%"},
      {"measurement": "Emax", "setting": "[7]", "value": 69.9, "unit": "%"},
      {"measurement": "EC40", "setting": "[8]", "value": 120, "unit": "nM"},
      {"measurement": "EC40", "setting": "[9]", "value": 210, "unit": "nM"}
    ]},
    {"compound": "Cc1ccccc1C(=O)Nc1cc(Cl)ccc1O", "values": [
      {"measurement": "Activity", "setting": "[2]", "value": "inactive"},
      {"measurement": "Activity", "setting": "[3]", "value": "inactive"},
      {"measurement": "Activity", "setting": "[4]", "value": "inactive"},
      {"measurement": "Activity", "setting": "[5]", "value": "inactive"},
      {"measurement": "Emax", "setting": "[6]", "value": 56.8, "unit": "%"},
      {"measurement": "Emax", "setting": "[7]", "value": 59.7, "unit": "%"},
      {"measurement": "EC40", "setting": "[8]", "value": 3630, "unit": "nM"},
      {"measurement": "EC40", "setting": "[9]", "value": 2950, "unit": "nM"}
    ]},
    {"compound": "C=C[C@@]1(C)CC(=O)[C@]2(O)[C@@]3(C)[C@@H](O)CCC(C)(C)[C@@H]3[C@H](O)[C@H](OC(C)=O)[C@@]2(C)O1", "values": [
      {"measurement": "Activity", "setting": "[10]", "value": 22.3, "unit": "%"}
    ]},
    {"compound": "COc1ccc(Cl)cc1C(=O)Nc1ccncc1", "values": [
      {"measurement": "Activity", "setting": "[2]", "value": "inactive"},
      {"measurement": "Activity", "setting": "[3]", "value": "inactive"},
      {"measurement": "Activity", "setting": "[4]", "value": "inactive"},
      {"measurement": "Activity", "setting": "[5]", "value": "inactive"},
      {"measurement": "Emax", "setting": "[6]", "value": 65.1, "unit": "%"},
      {"measurement": "Emax", "setting": "[7]", "value": 99.2, "unit": "%"},
      {"measurement": "EC40", "setting": "[8]", "value": 4160, "unit": "nM"},
      {"measurement": "EC40", "setting": "[9]", "value": 1120, "unit": "nM"}
    ]},
    {"compound": "O=C(Nc1cc(Cl)ccc1O)c1ccccc1", "values": [
      {"measurement": "Activity", "setting": "[2]", "value": "inactive"},
      {"measurement": "Activity", "setting": "[3]", "value": "inactive"},
      {"measurement": "Activity", "setting": "[4]", "value": "inactive"},
      {"measurement": "Activity", "setting": "[5]", "value": "inactive"},
      {"measurement": "Emax", "setting": "[6]", "value": 32.9, "unit": "%"},
      {"measurement": "Emax", "setting": "[7]", "value": 62.5, "unit": "%"},
      {"measurement": "EC40", "setting": "[9]", "value": 1410, "unit": "nM"}
    ]},
    {"compound": "O=c1[nH]c2cc(C(F)(F)F)ccc2n1-c1cc(C(F)(F)F)ccc1O", "values": [
      {"measurement": "Activity", "setting": "[1]", "value": 5.3, "unit": "%"},
      {"measurement": "Activity", "setting": "[2]", "value": "inactive"},
      {"measurement": "Activity", "setting": "[3]", "value": "inactive"},
      {"measurement": "Activity", "setting": "[4]", "value": "inactive"},
      {"measurement": "Activity", "setting": "[5]", "value": "inactive"},
      {"measurement": "Emax", "setting": "[6]", "value": 76.6, "unit": "%"},
      {"measurement": "Emax", "setting": "[7]", "value": 61.7, "unit": "%"},
      {"measurement": "EC40", "setting": "[8]", "value": 790, "unit": "nM"},
      {"measurement": "EC40", "setting": "[9]", "value": 350, "unit": "nM"}
    ]},
    {"compound": "COc1ccc(Cl)cc1C(=O)Nc1ccccn1", "values": [
      {"measurement": "Activity", "setting": "[2]", "value": "inactive"},
      {"measurement": "Activity", "setting": "[3]", "value": "inactive"},
      {"measurement": "Activity", "setting": "[4]", "value": "inactive"},
      {"measurement": "Activity", "setting": "[5]", "value": "inactive"},
      {"measurement": "Emax", "setting": "[6]", "value": 42, "unit": "%"},
      {"measurement": "Emax", "setting": "[7]", "value": 49.1, "unit": "%"},
      {"measurement": "EC40", "setting": "[8]", "value": 46800, "unit": "nM"},
      {"measurement": "EC40", "setting": "[9]", "value": 4470, "unit": "nM"}
    ]},
    {"compound": "CNc1ccc2oc(C[C@H]3O[C@@]4(CC[C@H]3C)O[C@H]([C@H](C)C(=O)c3ccc[nH]3)[C@H](C)C[C@H]4C)nc2c1C(=O)O", "values": [
      {"measurement": "Activity", "setting": "[11]", "value": 416, "unit": "%"}
    ]},
    {"compound": "COc1ccc(Cl)cc1C(=O)Nc1cccnc1", "values": [
      {"measurement": "Activity", "setting": "[2]", "value": "inactive"},
      {"measurement": "Activity", "setting": "[3]", "value": "inactive"},
      {"measurement": "Activity", "setting": "[4]", "value": "inactive"},
      {"measurement": "Activity", "setting": "[5]", "value": "inactive"},
      {"measurement": "Emax", "setting": "[6]", "value": 68.8, "unit": "%"},
      {"measurement": "Emax", "setting": "[7]", "value": 72.5, "unit": "%"},
      {"measurement": "EC40", "setting": "[8]", "value": 3470, "unit": "nM"},
      {"measurement": "EC40", "setting": "[9]", "value": 310, "unit": "nM"}
    ]},
    {"compound": "CC(C)[C@@]1(O)[C@@H](OC(=O)c2cc[nH]c2)[C@@]2(O)[C@]3(C)C[C@@]4(O)O[C@@]5([C@H](O)[C@@H](C)CC[C@]35O)[C@@]2(O)[C@@]41C", "values": [
      {"measurement": "Activity", "setting": "[12]", "value": 38.1, "unit": "%"}
    ]},
    {"compound": "Cc1ccc(NC(=O)c2ccccc2O)c([N+](=O)[O-])c1", "values": [
      {"measurement": "Activity", "setting": "[2]", "value": "inactive"},
      {"measurement": "Activity", "setting": "[3]", "value": "inactive"},
      {"measurement": "Activity", "setting": "[4]", "value": "inactive"},
      {"measurement": "Activity", "setting": "[5]", "value": "inactive"},
      {"measurement": "Emax", "setting": "[6]", "value": 54.4, "unit": "%"},
      {"measurement": "Emax", "setting": "[7]", "value": 86.4, "unit": "%"},
      {"measurement": "EC40", "setting": "[8]", "value": 1410, "unit": "nM"},
      {"measurement": "EC40", "setting": "[9]", "value": 560, "unit": "nM"}
    ]}
  ]
}
